In US20040197865A1, “Gene expression systems and recombinant cell lines” (3M Innovative Properties Company, priority 2002, published 2004):

target: T1, human TLR6 (Homo sapiens, UniProt Q9Y2C9); experiment: Luciferase induction off the IFN-α1 promoter in pIFN-α1-luc/pCI-TLR6 co-transfected Namalwa cells; type: cell-based; settings: IRM compound 10 μM, 18 hours, fold increase compared to DMSO negative control, representative experiment
T1 construct: expressed in transfected cells; host or cells: Namalwa cells (ATCC CRL-1432), co-transfected with pIFN-α1-luc and pCI-TLR6, G418-selected
Text: The vector pIFN-α1-luc was constructed by inserting BglII sites at both ends of the human IFN-α1 promoter (SEQ ID NO:21). The BglII sites were inserted into the IFN-α1 promoter and the sequence was amplified using the primer pair of SEQ ID NO:22 and SEQ ID NO:23. The amplified IFN-α1 promoter was cloned into the pGL3-Enhancing vector (Promega Corp., Madison, Wis.) at its BglII site.
The vector pCI-TLR6 was constructed by inserting SEQ ID NO:11 (GenBank Accession No. NM 006068), which includes the human TLR6 coding sequence, into the pCI-neo mammalian expression vector (Promega Corp.) at the vector's NheI and MluI restriction sites.
Burkitt's Lymphoma lymphoblastoid Namalwa cells (ATCC Accession No. CRL-1432) were grown by incubation in culture medium overnight. Cells were harvested by centrifugation in a tabletop centrifuge (1200 RPM for 5 minutes), and then resuspended in phosphate buffered sucrose to a concentration of 1.3×10^7 cells per milliliter.
For each transfection, a 750 μL aliquot of the cell suspension was placed in an electroporation cuvette with 4 mm gaps. 10 μg of the pIFN-α1-luc vector and 10 μg of the pCI-TLR6 vector were added to the electroporation cuvette. The cell and vector mixtures were incubated at room temperature for 5 minutes. The cells were electroporated using a BioRad Gene Pulser (BioRad Laboratories, Hercules, Calif.) set to at 500 μF capacitance and […], then incubated at room temperature for 5 minutes.
The electroporated cells were suspended in 10 mLs of culture medium and incubated overnight. Dead cells and debris were removed after 24 hours using a MACS Dead Cell Removal kit (Miltenyi Biotec, Auburn, Calif.). Cells were resuspended in 10 mLs of culture medium and incubated for an additional 24 hours.
Transfected cells were selected by adding G418 (Promega Corp., Madison, Wis.) to a final concentration of 1 mg/mL and incubating the cells for seven days.
The selected transfected cells were counted and resuspended to a concentration of 1×10^6 cell per mL in culture medium. 100 μl aliquots of cells were placed in the wells of a white-walled, white-bottomed 96-well plate (Corning, Inc. Corning, N.Y.). 1.0 μL of an IRM compound from Table 1 (prepared at 1 mM in 100% DMSO) was added to some cell aliquots so that the final concentration of IRM compound was 10 μM. As a positive control, some cell aliquots were incubated with Sendai virus instead of IRM compound. As a negative control, some cell aliquots were incubated with DMSO without IRM compound. In all cases, the cells were incubated for 18 hours.
The plates were equilibrated to room temperature before 1 volume of reconstituted LucLight Plus (Packard Instruments, Meriden, Conn.) was added to each aliquot of cells. Each well of the plate was read on an LJL Analyst (LJL Biosystems, Inc., Sunnyvale, Calif.) set with a 5 minute dark adapt. The data are expressed as the fold increase in luciferase induction off of the IFN-α1 promoter in cell aliquots incubated with the indicated stimulant compared to the negative control in which the cell aliquots were incubated with only DMSO.

T1 sequence (Q9Y2C9 32-796): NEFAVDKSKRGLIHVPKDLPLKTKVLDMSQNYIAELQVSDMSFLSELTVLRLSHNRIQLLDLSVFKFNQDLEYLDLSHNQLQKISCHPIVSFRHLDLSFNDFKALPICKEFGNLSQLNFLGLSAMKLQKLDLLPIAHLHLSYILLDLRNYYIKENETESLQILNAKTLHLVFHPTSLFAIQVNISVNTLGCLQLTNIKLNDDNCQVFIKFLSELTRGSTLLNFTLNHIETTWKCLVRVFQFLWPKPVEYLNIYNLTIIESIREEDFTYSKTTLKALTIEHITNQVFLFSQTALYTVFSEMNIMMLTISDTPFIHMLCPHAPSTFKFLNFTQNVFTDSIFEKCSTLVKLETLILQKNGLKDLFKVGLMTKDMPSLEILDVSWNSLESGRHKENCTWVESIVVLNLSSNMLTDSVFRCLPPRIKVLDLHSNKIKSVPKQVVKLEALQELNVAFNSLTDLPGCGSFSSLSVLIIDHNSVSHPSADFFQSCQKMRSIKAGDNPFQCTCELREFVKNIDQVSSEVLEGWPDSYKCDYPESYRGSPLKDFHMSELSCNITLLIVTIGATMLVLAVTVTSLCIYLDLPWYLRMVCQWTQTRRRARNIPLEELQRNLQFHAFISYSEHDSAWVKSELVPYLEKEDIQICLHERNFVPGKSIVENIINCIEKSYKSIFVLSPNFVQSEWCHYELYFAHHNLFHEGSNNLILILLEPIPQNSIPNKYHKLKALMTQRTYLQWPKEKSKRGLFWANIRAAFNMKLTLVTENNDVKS
T1 sequence (O60603 19-784 partner limits assumed): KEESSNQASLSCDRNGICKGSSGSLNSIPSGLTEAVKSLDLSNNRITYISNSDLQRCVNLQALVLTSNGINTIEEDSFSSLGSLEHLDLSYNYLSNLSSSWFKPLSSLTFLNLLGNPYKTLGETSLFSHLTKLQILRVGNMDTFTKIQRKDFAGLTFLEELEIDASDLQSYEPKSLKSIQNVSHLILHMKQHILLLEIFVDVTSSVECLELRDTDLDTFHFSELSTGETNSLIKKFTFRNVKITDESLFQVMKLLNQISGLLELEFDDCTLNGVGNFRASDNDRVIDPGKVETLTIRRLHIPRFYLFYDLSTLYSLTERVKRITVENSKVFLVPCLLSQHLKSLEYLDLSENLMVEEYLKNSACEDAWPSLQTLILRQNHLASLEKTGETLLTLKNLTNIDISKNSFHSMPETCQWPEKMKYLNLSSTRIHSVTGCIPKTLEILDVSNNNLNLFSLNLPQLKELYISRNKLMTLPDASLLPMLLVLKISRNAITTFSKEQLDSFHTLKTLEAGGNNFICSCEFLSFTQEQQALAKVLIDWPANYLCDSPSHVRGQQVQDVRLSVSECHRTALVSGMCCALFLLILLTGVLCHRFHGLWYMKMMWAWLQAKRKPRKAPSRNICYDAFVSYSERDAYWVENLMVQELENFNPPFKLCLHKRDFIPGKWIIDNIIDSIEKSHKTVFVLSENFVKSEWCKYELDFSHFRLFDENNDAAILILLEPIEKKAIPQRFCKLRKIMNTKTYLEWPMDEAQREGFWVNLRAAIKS

Compound	Fold Increase in Luciferase Induction
CCOCc1nc2c(N)nc3c(c2n1CC(C)(C)O)CCCC3 [IRM1, 4-amino-2-ethoxymethyl-α,α-dimethyl-6,7,8,9-tetrahydro-1H-imidazo[4,5-c]quinoline-1-ethanol]	3.6
Cc1nc2c(N)nc3ccccc3c2n1CC(C)(C)O [IRM2, 4-amino-α,α,2-trimethyl-1H-imidazo[4,5-c]quinoline-1-ethanol]	2.7
CCCCc1nc2c(N)nc3ccccc3c2n1CCCCNS(C)(=O)=O [IRM3, N-[4-(4-amino-2-butyl-1H-imidazo[4,5-c]quinolin-1-yl)butyl]methanesulfonamide]	2.6
Nc1nc2ccccc2c2c1ncn2CCOCCCc1cccnc1 [IRM4, 1-{2-[3-(3-pyridyl)propoxy]ethyl}-1H-imidazo[4,5-c]quinolin-4-amine]	4.0
CCCCc1nc2c(N)nc3cccnc3c2n1CC(C)C [IRM5, 2-butyl-1-(2-methylpropyl)-1H-imidazo[4,5-c][1,5]naphthyridin-4-amine]	3.2

Continued, values first:

Fold Increase in Luciferase Induction	Compound
2.9	CCCCc1nc2c(N)nc3c(c2n1CC(C)C)NCCC3 [IRM6, 2-butyl-6,7,8,9-tetrahydro-1-(2-methylpropyl)-1H-imidazo[4,5-c][1,5]naphthyridin-4-amine]
3.2	COCCc1nc2c(N)nc3ccccc3c2n1CCCCNC(=O)c1ccc(-n2cccc2)nc1 [IRM7, N^3-{4-[4-amino-2-(2-methoxyethyl)-1H-imidazo[4,5-c]quinolin-1-yl]butyl}-6-(1H-1-pyrrolyl)nicotinamide]
2.3	CCc1nc2c(N)nc3ccccc3c2n1CCCCCS(C)(=O)=O [IRM8, 2-ethyl-1-[5-(methylsulfonyl)pentyl]-1H-imidazo[4,5-c]quinolin-4-amine]
